Experiments:
Type in all cases: ADME
[1] = Half-life time was measured in the presence of methyl cyanide solvent
[2] = Life-time was measured in the presence of DMF solvent (t = weighted average of two lifetimes from biexponential decay)
[3] = Life-time was measured in the presence of methyl cyanide solvent (t = weighted average of two lifetimes from biexponential decay)

SMILES	T1/2 [1] [us]	t [2] [ns]	t [3] [ns]
CCOC(=O)[C@H](Cc1c[nH]c2ccccc12)NC(=O)[C@H](C)NS(=O)(=O)c1ccc2ccc3ccc([N+](=O)[O-])c4ccc1c2c34	0.4		
CCOC(=O)[C@H](Cc1c[nH]c2ccccc12)NC(=O)[C@H](C)NS(=O)(=O)c1ccc2ccc3cccc4ccc1c2c34		0.5	0.76
CCOC(=O)[C@H](C)NS(=O)(=O)c1ccc2ccc3ccc([N+](=O)[O-])c4ccc1c2c34	12		
CCOC(=O)[C@H](Cc1c[nH]c2ccccc12)NS(=O)(=O)c1ccc2ccc3cccc4ccc1c2c34		0.32	0.79

Other lines, results leading:

T1/2 [1] [us]	t [2] [ns]	t [3] [ns]	SMILES
0.16			CCOC(=O)[C@H](Cc1c[nH]c2ccccc12)NC(=O)[C@H](C)NC(=O)[C@H](C)NS(=O)(=O)c1ccc2ccc3ccc([N+](=O)[O-])c4ccc1c2c34
	1.3	3.1	CCOC(=O)[C@H](Cc1c[nH]c2ccccc12)NC(=O)[C@H](C)NC(=O)[C@H](C)NS(=O)(=O)c1ccc2ccc3cccc4ccc1c2c34
